Patent US20070243201A1, “Method for Selecting Epitopes for Immunotherapy” (Igeneon Krebs-Immuntherapie Forschungs-und entwicklungs-AG, priority 2003, published 2007)

Test system: immune serum
Experiment: Ep-CAM epitope mapping by solid phase peptide (spot) synthesis: binding of biotinylated serum IgG to immobilized decapeptides
Conditions: immune serum of a patient after active immunotherapy with mAb17-1A (EpCAM antibody), taken 71 days after immunization; compared with pre-serum of day 1, which does not show this binding or shows it to a slight degree only; FIG. 1
Description: Protein G Sepharose Fast Flow (Amersham Biosciences) was packed into an HR 5 column (inner diameter 5 mm; Amersham Biosciences). The column was equilibrated with 5 column volumes of PBS buffer at a flow rate of 0.33 ml/min. Subsequently, serum was loaded at the same flow rate, followed by washing with further 5 column volumes. Elution was carried out with 0.2 M acetic acid +20% ethylene glycol, pH 2.7. The eluate was taken up in 1 M sodium bicarbonate buffer and thus brought to pH 8.6.
One aliquot of the purified serum was incubated with NHS-LC biotin for 1 h at room temperature. Subsequently, the sample was re-buffered via a Sephadex G25 gel filtration column (PD-10, Amersham Biosciences) so as to separate the biotinylated […] from free […], on the one hand, and to further transfer it into a medium suitable for the test system.
The spot synthesis was carried out by means of a modified method according to Frank (Tetrahedron 48 (1992) 9217-9232). Whatman 540 cellulose was dried over night in the desiccator. The membrane was then functionalized for 3 h with 0.2 M Fmoc-β alanine, 0.24 M diisopropyl carbodiimide and 0.4 M 1-methyl-imidazole. After washing with 3× dimethylformamide (DMF), the Fmoc group was cleaved off by treatment with 20% piperidine in DMF. The peptides were synthesized by means of the AutoSpot Robot ASP222 (INTAVIS, Germany). As the first amino acid, always a further β-alanine spacer was introduced. After the first β-alanine coupling, the remaining free amino groups were acetylated with 2% acetic anhydride. As the amino acids, Fmoc-protected Opfp esters of the amino acids (O-pentafluorophenyl, Novabiochem), dissolved in N-methyl pyrrolidone at a concentration of 0.3 M were used. Each amino acid was spotted twice per cycle. After each cycle, the Fmoc group was cleaved off with piperidine, as described above, and then the membrane was washed 6× with DMF. After the synthesis of the last amino acid, it was again acetylated, and then the side protection groups were cleaved off. At first, the membrane was treated with 90% trifluoroacetic acid, 3% triisobutyl silane, 1% phenol, 2% water and 4% dichloromethane for 30 minutes. Subsequently, the membrane was washed 5× with DCM, 3× with DMF and methanol and dried. This was followed by a further cleavage by treatment with 50% trifluoroacetic acid, 3% triisobutyl silane, 1% phenol, 2% water and 44% dichloromethane for two hours. […]
Since the major immune response is provided in the form of IgG, IgG was purified from the sera via protein G Sepharose. […] The concentration of the biotinylated IgG was determined via photometric absorption measurement at 280 nm, and after the addition of 0.2% sodium azide the material was stored at 4° C. […]

binding of immune serum to the 10 mer peptides	Sequence
increasingly binds	DPKFITSILY [compound 45]
increasingly binds	ALQKEITTRY [compound 42]
increasingly binds	IADVAYYFEK [compound 53]
increasingly binds	DLDPGQTLIY [compound 61]
